According to patent publication US4281121A, “1,3,4-Thiadiazole-2-carboxylic acid derivatives, process for making the same and fungicidal and nematocidal compositions containing same” (Schering Aktiengesellschaft, priority 1978, dated 1981):

Test system: Piricularia oryzae
Experiment: not given
Format: in vivo
Conditions: concentration of active agent 0.1 (percentages); 5 days

Row | SMILES | % activity [%]
1 | CCCS(=O)(=O)c1nnc(C(=O)OCC)s1 [5-propylsulfonyl-1,3,4-thiadiazole-2-carboxylic acid-ethylester] | 93

Test system: Fusarium avenaceum
Experiment: Threshold concentration test in case of Fusarium avenaceum (infested soil, garden peas)
Format: in vivo
Conditions: 25 mg/l soil; 20 grains per dish; 18 days at 20-24° C.
Procedure: Threshold concentration test in case of Fusarium avenaceum
A 20% pulverulent active agent of the type further identified in the table below was mixed in uniform manner with a soil which had been heavily infested with Fusarium avenaceum. The thus treated soil was then placed into clay dishes of a capacity of 0.5 l of earth. Each dish was seeded without any intervening time with 20 grains of garden peas (Pisum sativum L. convar. medullare Alef.) of the type "Wunder von Kelvedon". After a cultivation time of 18 days at 20° to 24° C. in a hot house the number of sound peas was determined and a root evaluation was carried out. The active agents employed, the amounts and results appear from the following table.
(§1) The root evaluation was carried out on a scale from 1 to 4 as follows: […]

Row | SMILES | number of sound peas
2 | CCCCS(=O)(=O)c1nnc(C#N)s1 [5-butylsulfonyl-1,3,4-thiadiazole-2-carbonitrile] | 18
3 | CCCCS(=O)(=O)c1nnc(C(N)=O)s1 [5-butylsulfonyl-1,3,4-thiadiazole-2-carboxamide] | 15

Same assay, conditions: 25 mg/l soil; 18 days

Row | SMILES | root evaluation (1-4)
4 | CCCCS(=O)(=O)c1nnc(C#N)s1 [5-butylsulfonyl-1,3,4-thiadiazole-2-carbonitrile] | 4
5 | CCCCS(=O)(=O)c1nnc(C(N)=O)s1 [5-butylsulfonyl-1,3,4-thiadiazole-2-carboxamide] | 2

Same assay, conditions: 50 mg/l soil; 20 grains per dish; 18 days at 20-24° C.

Row | SMILES | number of sound peas
6 | CCCCS(=O)(=O)c1nnc(C#N)s1 [5-butylsulfonyl-1,3,4-thiadiazole-2-carbonitrile] | 20
7 | CCCCS(=O)(=O)c1nnc(C(N)=O)s1 [5-butylsulfonyl-1,3,4-thiadiazole-2-carboxamide] | 12

Same assay, conditions: 50 mg/l soil; 18 days

Row | SMILES | root evaluation (1-4)
8 | CCCCS(=O)(=O)c1nnc(C#N)s1 [5-butylsulfonyl-1,3,4-thiadiazole-2-carbonitrile] | 4
9 | CCCCS(=O)(=O)c1nnc(C(N)=O)s1 [5-butylsulfonyl-1,3,4-thiadiazole-2-carboxamide] | 3

Same assay, conditions: 100 mg/l soil; 20 grains per dish; 18 days at 20-24° C.

Row | SMILES | number of sound peas
10 | CCCCS(=O)(=O)c1nnc(C#N)s1 [5-butylsulfonyl-1,3,4-thiadiazole-2-carbonitrile] | 20
11 | CCCCS(=O)(=O)c1nnc(C(N)=O)s1 [5-butylsulfonyl-1,3,4-thiadiazole-2-carboxamide] | 16

Same assay, conditions: 100 mg/l soil; 18 days

Row | SMILES | root evaluation (1-4)
12 | CCCCS(=O)(=O)c1nnc(C#N)s1 [5-butylsulfonyl-1,3,4-thiadiazole-2-carbonitrile] | 4
13 | CCCCS(=O)(=O)c1nnc(C(N)=O)s1 [5-butylsulfonyl-1,3,4-thiadiazole-2-carboxamide] | 4

Test system: Tilletia caries
Experiment: Treatment of oat seeds infested with Tilletia caries (spore germination)
Format: in vivo
Conditions: 20 g active agent per 100 kg

Row | SMILES | % activity [%]
14 | CCCCS(=O)(=O)c1nnc(C#N)s1 [5-butylsulfonyl-1,3,4-thiadiazole-2-carbonitrile] | 95

Same assay, conditions: 50 g active agent per 100 kg

Row | SMILES | % activity [%]
15 | CCCCS(=O)(=O)c1nnc(C#N)s1 [5-butylsulfonyl-1,3,4-thiadiazole-2-carbonitrile] | 100

Test system: Plasmopara viticola
Experiment: Prophylactic leaf treatment of grapevines in the hothouse against Plasmopara viticola
Format: in vivo
Conditions: concentration of active agent 0.005 (unit not given)
Procedure: Effects of prophylactic leaf treatment of grapevines in the hothouse against Plasmopara viticola
Young grapevine plants having from 5 to 8 leaves were sprayed dripping wet with the concentrations of active agents stated in the table below. After drying of the spray deposit the leaves were sprayed with an aqueous suspension of sporangia of the fungus (about 20,000 per ml); the spraying was applied to the bottom side of the leaves. The plants were then immediately incubated in a hothouse at a temperature of 22° to 24° C. and at maximum water saturation in the atmosphere. Beginning with the second day the humidity of the air was reduced for 3 to 4 days to normal level (30 to 70% saturation) and was then maintained for another day on the level of full saturation. Subsequently, the percentage portion of the fungus infested surface of each leaf was noted and the average per treatment was calculated in order to determine the fungicidal activity. This was done on the basis of the following formula: [formula]
The active compounds were applied in the form of a 20% concentration spray powder.

Row | SMILES | % activity [%]
16 | CCCCS(=O)(=O)c1nnc(C#N)s1 [5-butylsulfonyl-1,3,4-thiadiazole-2-carbonitrile] | 91
17 | CCCCS(=O)(=O)c1nnc(C(N)=O)s1 [5-butylsulfonyl-1,3,4-thiadiazole-2-carboxamide] | 73

Same assay, conditions: concentration of active agent 0.025 (unit not given)

Row | SMILES | % activity [%]
18 | CCCCS(=O)(=O)c1nnc(C#N)s1 [5-butylsulfonyl-1,3,4-thiadiazole-2-carbonitrile] | 93
19 | CCCCS(=O)(=O)c1nnc(C(N)=O)s1 [5-butylsulfonyl-1,3,4-thiadiazole-2-carboxamide] | 90

Test system: Pythium ultimum
Experiment: Threshold concentration test for use of the compounds against Pythium ultimum (infested soil, garden peas)
Format: in vivo
Design: key to root evaluation (1-4): 4: white roots without fungous necrosis; 3: white roots, minor fungous necrosis; 2: brown roots, already more pronounced fungous necrosis; 1: heavy fungous necrosis, roots rotted
Conditions: 20 mg/l soil; 3 weeks
Procedure: Threshold concentration test for use of the compounds against Pythium ultimum
A 20% concentration of certain pulverulent active agents as listed below were mixed in uniform manner into a soil which had been heavily infested by Pythium ultimum. The thus treated soil was then placed into clay dishes of a capacity of 0.5 l earth. Without any intermediate time lapse 20 grain of garden peas (Pisum sativum L. convar. medullare Alef.) of the type "Wunder von Kelvedon" were then seeded into each of the clay dishes. After a cultivation period of three weeks at 20° to 24° C. in a hothouse the number of sound peas was determined and a root evaluation was carried out. The active agents amounts and results appear from the following table.
as §1

Row | SMILES | root evaluation (1-4)
20 | CCCCS(=O)(=O)c1nnc(C(N)=O)s1 [5-butylsulfonyl-1,3,4-thiadiazole-2-carboxamide] | 1

Same assay, conditions: 20 mg/l soil; 20 grains per dish; 3 weeks at 20-24° C.

Row | SMILES | number of sound peas
21 | CCCCS(=O)(=O)c1nnc(C(N)=O)s1 [5-butylsulfonyl-1,3,4-thiadiazole-2-carboxamide] | 11

Same assay, conditions: 40 mg/l soil; 3 weeks

Row | SMILES | root evaluation (1-4)
22 | CCCCS(=O)(=O)c1nnc(C(N)=O)s1 [5-butylsulfonyl-1,3,4-thiadiazole-2-carboxamide] | 4

Same assay, conditions: 40 mg/l soil; 20 grains per dish; 3 weeks at 20-24° C.

Row | SMILES | number of sound peas
23 | CCCCS(=O)(=O)c1nnc(C(N)=O)s1 [5-butylsulfonyl-1,3,4-thiadiazole-2-carboxamide] | 20

Same assay, conditions: 80 mg/l soil; 3 weeks

Row | SMILES | root evaluation (1-4)
24 | CCCCS(=O)(=O)c1nnc(C(N)=O)s1 [5-butylsulfonyl-1,3,4-thiadiazole-2-carboxamide] | 4

Same assay, conditions: 80 mg/l soil; 20 grains per dish; 3 weeks at 20-24° C.

Row | SMILES | number of sound peas
25 | CCCCS(=O)(=O)c1nnc(C(N)=O)s1 [5-butylsulfonyl-1,3,4-thiadiazole-2-carboxamide] | 18
